Assay results: US11639350B2, “Heteroaryldihydropyrimidine derivatives and methods of treating hepatitis B infections” (Janssen Pharmaceutica NV, priority 2018, dated 2023)
Like-named read-outs stand apart in the source and are kept apart here.

How the values were obtained:
HBV = HBV inhibitory activity: HBV DNA in the culture medium of HepG2.2.15 cells by q-PCR; assay type: cell-based; details: HepG2.2.15 cells, 6 days of compound treatment, HBV DNA in culture medium by q-PCR, highest concentration 10 μM, read-out: EC50
Outline: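 HepG2.2.15 cells in 2% FBS medium, 40,000 per well, treated 6 days with compound (medium refreshed once), eight 3-fold dilutions from 10 μM top. HBV DNA extracted from culture medium and quantified by q-PCR; EC50 averaged over repeats. Cytotoxicity run in parallel at 5,000 cells per well, top 100 μM, giving CC50.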

[1] = Cytotoxicity determination in HepG2.2.15 cells (CCK-8); assay type: cell-based; details: human, 6 days of compound treatment, CCK-8, highest concentration 100 μM
Outline: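 HepG2.2.15 cells seeded at 5,000 cells/well in 2% FBS medium, incubated overnight at 37° C., then treated 6 days with compounds (8 points, 3-fold dilutions, top 100 μM), medium refreshed once midway. CCK-8 added for 2.5 h; A450 read against 630 nm reference; CC50 calculated, averaged over repeats.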

[2] = Hepatitis B virus, HepG2.2.15, 144 h

SMILES	EC50 (HBV; [2]) [nM]	CC50 at 6 days [1] [µM]	EC50 (HBV) [nM]
COC(=O)C1=C([C@H]2C[C@@H](NS(C)(=O)=O)C2)NC(c2nccs2)=NC1c1ccc(F)cc1Cl (single isomer, unassigned) [Compound 206D, (cis)-Methyl 4-(2-chloro-4-fluorophenyl)-6-(3-(methylsulfonamido)cyclobutyl)-2-(thiazol-2-yl)-1,4-dihydropyrimidine-5-carboxylate]	389	39.2	–
COC(=O)C1=C(C2CCN(C)C2)NC(c2nccs2)=NC1c1ccc(F)cc1Cl (single isomer, unassigned) [Compound 207C, methyl 4-(2-chloro-4-fluorophenyl)-6-(−1-methylpyrrolidin-3-yl)-2-(thiazol-2-yl)-1,4-dihydropyrimidine-5-carboxylate]	753	> 20	–
COC(=O)C1=C(C2CCN(S(=O)(=O)CC(=O)O)C2)NC(c2nccs2)=NC1c1ccc(F)cc1Cl (single isomer, unassigned) [Compound 214A, 2-((−3-(−6-(2-Chloro-4-fluorophenyl)-5-(methoxycarbonyl)-2-(thiazol-2-yl)-3,6-dihydropyrimidin-4-yl)pyrrolidin-1-yl)sulfonyl)acetic Acid]	–	> 100	196
COC(=O)C1=C(C2CCN(S(=O)(=O)[C@H]3C[C@H](C(=O)O)C3)CC2)NC(c2nccs2)=NC1c1ccc(F)c(F)c1Cl (single isomer, unassigned) [Compound 232B, (trans)-3-((4-(6-(2-Chloro-3,4-difluorophenyl)-5-(methoxycarbonyl)-2-(thiazol-2-yl)-3,6-dihydropyrimidin-4-yl)piperidin-1-yl)sulfonyl)cyclobutanecarboxylic Acid]	57	60	–
COC(=O)C1=C([C@H]2CC[C@@H](S(=O)(=O)N(C)C)CC2)NC(c2nccs2)=NC1c1ccc(F)c(F)c1Cl (single isomer, unassigned) [Compound 233B, (cis)-Methyl 4-(2-chloro-3,4-difluorophenyl)-6-(4-(N,N-dimethylsulfamoyl)cyclohexyl)-2-(thiazol-2-yl)-1,4-dihydropyrimidine-5-carboxylate]	56	6.3	–
COC(=O)C1=C([C@H]2CC[C@H](S(=O)(=O)N(C)C)CC2)NC(c2nccs2)=NC1c1ccc(F)c(F)c1Cl (single isomer, unassigned) [Compound 233C, (trans)-methyl 4-(2-chloro-3,4-difluorophenyl)-6-(4-(N,N-dimethylsulfamoyl)cyclohexyl)-2-(thiazol-2-yl)-1,4-dihydropyrimidine-5-carboxylate]	13	5.6	–
COC(=O)C1=C([C@H]2CC[C@@H](S(=O)(=O)NC(C)C)CC2)NC(c2nccs2)=NC1c1ccc(F)c(F)c1Cl (single isomer, unassigned) [Compound 234B, (cis)-methyl 4-(2-chloro-3,4-difluorophenyl)-6-(4-(N-isopropylsulfamoyl)cyclohexyl)-2-(thiazol-2-yl)-1,4-dihydropyrimidine-5-carboxylate]	113	16.3	–
COC(=O)C1=C([C@H]2CC[C@H](S(=O)(=O)NC(C)C)CC2)NC(c2nccs2)=NC1c1ccc(F)c(F)c1Cl (single isomer, unassigned) [Compound 234D, (trans)-methyl 4-(2-chloro-3,4-difluorophenyl)-6-(4-(N-isopropylsulfamoyl)cyclohexyl)-2-(thiazol-2-yl)-1,4-dihydropyrimidine-5-carboxylate]	13	4.2	–
COC(=O)C1=C([C@H]2CC[C@H](C(=O)OC)CC2)NC(c2nc(C)cs2)=NC1c1ccc(F)cc1Br (single isomer, unassigned) [Compound 239X, (trans)-Methyl 4-(2-bromo-4-fluorophenyl)-6-(4-(methoxycarbonyl)cyclohexyl)-2-(4-methylthiazol-2-yl)-1,4-dihydropyrimidine-5-carboxylate]	149	14.8	–
COC(=O)C1=C(C2CCN(S(=O)(=O)[C@H]3C[C@H](C(C)(C)O)C3)CC2)NC(c2nccs2)=NC1c1ccc(F)cc1Cl (single isomer, unassigned) [Compound 244B, (trans)-Methyl 4-(2-chloro-4-fluorophenyl)-6-(1-((3-(2-hydroxypropan-2-yl)cyclobutyl)sulfonyl)piperidin-4-yl)-2-(thiazol-2-yl)-1,4-dihydropyrimidine-5-carboxylate]	6	12.3	–
COC(=O)C1=C(C2CCN(S(=O)(=O)[C@H]3C[C@@H](C(C)(C)O)C3)CC2)NC(c2nccs2)=NC1c1ccc(F)cc1Cl (single isomer, unassigned) [Compound 244D, (cis)-Methyl 4-(2-chloro-4-fluorophenyl)-6-(1-((3-(2-hydroxypropan-2-yl)cyclobutyl)sulfonyl)piperidin-4-yl)-2-(thiazol-2-yl)-1,4-dihydropyrimidine-5-carboxylate]	107	60	–
COC[C@H](O)CN([C@H]1CC[C@H](C2=C(C(=O)OC)C(c3ccc(F)c(F)c3Cl)N=C(c3nccs3)N2)CC1)S(C)(=O)=O (single isomer, unassigned) [Compound 245B]	49	12.3	–
COC[C@@H](O)CN([C@H]1CC[C@H](C2=C(C(=O)OC)C(c3ccc(F)c(F)c3Cl)N=C(c3nccs3)N2)CC1)S(C)(=O)=O (single isomer, unassigned) [Compound 245D]	15	12.5	–
COC(=O)C1=C([C@H]2CC[C@H](NS(=O)(=O)C3CN(C)C3)CC2)NC(c2nccs2)=NC1c1ccc(F)c(F)c1Cl (single isomer, unassigned) [Compound 251B, (trans)-Methyl 4-(2-chloro-3,4-difluorophenyl)-6-(4-(1-methylazetidine-3-sulfonamido)cyclohexyl)-2-(thiazol-2-yl)-1,4-dihydropyrimidine-5-carboxylate]	103	8.7	–
CNS(=O)(=O)[C@H]1CC[C@@H](C2=C(C(=O)OC)C(c3cccc(F)c3Cl)N=C(c3nccs3)N2)CC1 (single isomer, unassigned) [Compound 259C, (cis)-methyl 4-(2-chloro-3-fluorophenyl)-6-(4-(N-methylsulfamoyl)cyclohexyl)-2-(thiazol-2-yl)-1,4-dihydropyrimidine-5-carboxylate]	36	12.7	–
CNS(=O)(=O)[C@H]1CC[C@H](C2=C(C(=O)OC)C(c3cccc(F)c3Cl)N=C(c3nccs3)N2)CC1 (single isomer, unassigned) [Compound 259E, (trans)-methyl 4-(2-chloro-3-fluorophenyl)-6-(4-(N-methylsulfamoyl)cyclohexyl)-2-(thiazol-2-yl)-1,4-dihydropyrimidine-5-carboxylate]	28	22.7	–
CCOC(=O)C1=C([C@@H]2CC[C@H](C(=O)O)OC2)NC(c2nccs2)=NC1c1ccc(F)cc1Cl (single isomer, unassigned) [Compound 265E, (cis)-5-(−6-(2-Chloro-4-fluorophenyl)-5-(ethoxycarbonyl)-2-(thiazol-2-yl)-3,6-dihydropyrimidin-4-yl)tetrahydro-2H-pyran-2-carboxylic Acid]	–	92.3	978
COCCNS(=O)(=O)N1CCC(C2=C(C(=O)OC)C(c3ccc(F)cc3Cl)N=C(c3nccs3)N2)CC1 (single isomer, unassigned) [Compound 268B, Methyl 4-(2-chloro-4-fluorophenyl)-6-(1-(N-(2-methoxyethyl)-sulfamoyl)piperidin-4-yl)-2-(thiazol-2-yl)-1,4-dihydropyrimidine-5-carboxylate]	59	30.7	–
COC(=O)C1=C([C@H]2CC[C@H](C(=O)OC)CC2)NC(c2nccs2)=NC1c1ccc(F)c(F)c1Cl (single isomer, unassigned) [Compound 288M, (trans)-Methyl 4-(2-chloro-3,4-difluorophenyl)-6-(4-(methoxycarbonyl)cyclohexyl)-2-(thiazol-2-yl)-1,4-dihydropyrimidine-5-carboxylate]	63	20	–
COC(=O)C1=C([C@H]2CC[C@H](S(=O)(=O)NCCO)CC2)NC(c2nccs2)=NC1c1ccc(F)c(F)c1Cl (single isomer, unassigned) [Compound 291C, (trans)-Methyl 4-(2-chloro-3,4-difluorophenyl)-6-(4-(N-(2-hydroxyethyl)sulfamoyl)cyclohexyl)-2-(thiazol-2-yl)-1,4-dihydropyrimidine-5-carboxylate]	16	12	–
CCOC(=O)C1=C([C@H]2CCC[C@H](C(=O)O)CC2)NC(c2nccs2)=NC1c1ccc(F)c(F)c1Cl (single isomer, unassigned) [Compound 302A, (trans)-4-(−6-(2-Chloro-3,4-difluorophenyl)-5-(ethoxycarbonyl)-2-(thiazol-2-yl)-3,6-dihydropyrimidin-4-yl)cycloheptanecarboxylic Acid]	24	15.2	–
COC(=O)C1=C(C2CCN(S(=O)(=O)CC(O)CO)CC2)NC(c2nccs2)=NC1c1ccc(F)cc1Cl (single isomer, unassigned) [Compound 305A, Methyl 4-(2-chloro-4-fluorophenyl)-6-(1-((2,3-dihydroxypropyl)sulfonyl)piperidin-4-yl)-2-(thiazol-2-yl)-1,4-dihydropyrimidine-5-carboxylate]	47	36.2	–
